From PubChem BioAssay AID179 (DTP/NCI, 2004)
Calls of active or inactive are those of the source.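 How the source made its calls: active means compounds giving half or more protection of infected cells from virus-caused growth loss, again on retest; inactive means the rest.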 Where a SMILES comes first, the peptide text is derived from it. [ ]: non-standard residue; d: D form. The star is where a group is joined. ξ: configuration not given here. Boc = CC(C)(C)OC(=O)*; ξV = CC(C)C(N)C(=O)O; OBn = c1ccc(CO*)cc1

Test system: CEM cells HIV-1 protection, formazan growth assay
Experiment: NCI AIDS Antiviral Assay
Settings: for IC50: measured here: growth of uninfected CEM cells
How it was run: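 Protection of CEM cells against HIV-1 was scored from cell growth (soluble formazan) across five concentrations, with parallel uninfected cells. Lack of protection may reflect toxicity.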

Compound | EC50 | IC50 | outcome
CCn1c(O)c(C=Nc2ccccc2)s/c1=N/Nc1nc(-c2ccc(O)c(O)c2)cs1 | > 200 µM | 14.1 µM | 
C=CCOc1cc2c(ccc1=O)-c1c(cc(OC)c(OC)c1OC)CCC2NC(C)=O (stereo unspecified) | > 200 µM | 3.63 µM | 
Cc1nc(C(N)=O)c(N)n1CCN1CCN(C(=O)CCCCCCCCCCNC2N=CNc3nc[nH]c32)CC1 (stereo unspecified) |  |  | inactive
CCCCCCC1=C(O)C(=O)C(CCCCCC)=C(O)C1=O | > 69.2 µM | 11.7 µM | 
O=C1C2C(C(=O)N1Cc1ccccc1)N(Cc1ccccc1)C(=O)N2Cc1ccccc1 (stereo unspecified) | > 12.3 µM | > 12.3 µM | 
O=C1CCCc2cc3c(cc21)CC1(Cc2ccccc2C1)C3 | > 200 µM | 1.29 µM | 
NCC1OC(OC2C(CO)OC(OC3C(O)C(N)CC(N)C3OC3OC(CO)C(O)C(O)C3N)C2O)C(N)C(O)C1O (stereo unspecified) |  |  | inactive
COC(=O)C1CC(C(=O)OC)c2nc3cc(C)c(C)cc3nc21 (stereo unspecified) | > 83.2 µM | > 83.2 µM | 
COC1/C=C/OC2(C)Oc3c(C)c(O)c4c(O)c(cc(OCC(=O)N5CCCCCC5)c4c3C2=O)NC(=O)/C(C)=C\C=C\C(C)C(O)C(C)C(O)C(C)C(OC(C)=O)C1C (stereo unspecified) | > 200 µM | 39.8 µM | 
CC(=O)N1CCCCCC1=O | > 1620 µM | > 1620 µM | 
O=C1OC(c2ccccc2)N/C1=C\c1ccc2c(c1)OCO2 (stereo unspecified) | > 200 µM | 69.2 µM | 
CCOC(=O)c1cc(-n2nnc3ccccc32)cn1C | > 200 µM | 46.8 µM | 
NC(=O)c1cn(C2OC(CO)C(O)C2O)c2ncnc(N)c12 (stereo unspecified) | > 0.2 µM | 0.00562 µM | 
COc1cc(O)c2c(c1)O[C@H](C)C(C)C2=O (stereo partly specified) | > 200 µM | > 200 µM | 
O=c1c2ccccc2nc(-c2ccccc2)n1NC(=S)Nc1ccc(Cl)cc1 | > 123 µM | 107 µM | 
CC(=O)C(=CC=C(c1ccc(N(C)C)cc1)c1ccc(N(C)C)cc1)C(C)=O | > 5.37 µM | 3.24 µM | 
O=C(C=Nc1ccccc1C(=O)O)c1ccco1 | > 8.32 µM | > 8.32 µM | 
CC1=NN(C(=O)CC(=O)Nc2cccc(Cl)c2)C(=O)C1N=Nc1ccc(C(=O)O)cc1 (stereo unspecified) | > 200 µM | 52.5 µM | 
CC(O)C(NCNC(=O)C1=C(O)C2(O)C(=O)C3=C(O)c4c(O)cccc4C(C)(O)C3CC2C(N(C)C)C1=O)C(=O)O (stereo unspecified) | > 37.2 µM | > 37.2 µM | 
C=C(CCC(Cl)C(O)CO)[Si](C)(C)C (stereo unspecified) | > 110 µM | > 110 µM | 
CCNCCNC(=O)c1ccc(Br)cc1 |  |  | inactive

Compound | EC50 | IC50 | outcome
O=C(Nc1c(NCC(O)C(O)C(O)CO)[nH]c(=O)[nH]c1=O)c1ccc(S(=O)(=O)F)cc1 (stereo unspecified) | > 200 µM | 117 µM | 
CN(C)C=C(S(C)(=O)=O)S(C)(=O)=O | > 200 µM | 126 µM | 
COc1cc2ccc1OCc1cccc(n1)COc1ccc(cc1OC)C=NCCNCCNCCN=C2 | > 200 µM | 110 µM | 
CC1C2(C)OC(=N)C(C#N)(C(C)O2)C1(C#N)C#N (stereo unspecified) | > 200 µM | 9.77 µM | 
COc1ccc2c(c1)CCC1C3(CCCC21C)OCCO3 (stereo unspecified) | > 100 µM | 20.4 µM | 
Nc1ccc(Nc2cc(=O)[nH]c(=O)[nH]2)cc1 | > 200 µM | > 200 µM | 
CC1(C)O[C@@H](CC/C=C/CO)[C@H](CC/C=C/CO)O1 |  |  | inactive
Cc1cn([C@H]2C[C@@H]3[C@@H](COC(C(Cl)Cl)N3O)O2)c(=O)[nH]c1=O (stereo partly specified) | > 200 µM | > 200 µM | 
CCCCCCCCCC1C(C)c2c([nH]c3ccccc23)C2C(=O)N(c3ccccc3)C(=O)C21 (stereo unspecified) |  |  | inactive
CSc1scc2c1/C(=N/NC(N)=O)CCC2 | > 200 µM | 91.2 µM | 
O=[N+]([O-])c1ccc(NC(c2ccccc2)P(=O)(Oc2ccccc2)Oc2ccccc2)cc1 (stereo unspecified) | > 5.89 µM | > 5.89 µM | 
Nc1nc2ncn(CC(O)CO)c2c(=O)[nH]1 (stereo unspecified) | > 60.3 µM | > 60.3 µM | 
Cc1cc(N(CCC#N)CCC#N)ccc1N=Nc1cccc(Cl)c1 | > 7.76 µM | > 7.76 µM | 
COc1cc2cc(C(=O)N3CC(CCl)c4ccc(NO)cc43)[nH]c2c(OC)c1OC (stereo unspecified) | > 2 µM | 1.82 µM | 
CC1=CC(=O)/C(=C/N2C(=O)/C(=C\c3cccc(O)c3)SC2=S)C(=O)O1 | > 200 µM | 55 µM | 
Cc1cc(S(=O)(=O)Nc2nc(N)nc(N(C)C)n2)c(SCC(=O)O)cc1Cl | > 200 µM | > 200 µM | 
CSc1ccc(NC(=O)Nc2cc(C)cc(C)n2)cc1 | > 200 µM | > 200 µM | 
O=C(O)/C(=C/c1ccccc1[N+](=O)[O-])c1ccccc1 | > 603 µM | 550 µM | 
Cc1nc(N(CCO)CCO)nc2c1C(=O)Nc1ccccc1N2 | > 200 µM | 42.7 µM | 
O=C(/C=C/c1ccc(Br)cc1)c1ccc(NCc2nc3ccccc3[nH]2)cc1 | > 16.6 µM | 11.5 µM | 
CCCCCCCCCCCCCCC(C(=O)O)S(=O)(=O)O (stereo unspecified) | > 200 µM | 155 µM | 

Compound | EC50 | IC50 | outcome
O=C(NC1C=Nc2ccccc2NC1=O)c1ccc(Cl)cc1 (stereo unspecified) | > 200 µM | > 200 µM | 
COC(=O)[C@@H]1C=C[C@H](OC2OC(COC(C)=O)C(OC(C)=O)C(OC(C)=O)C2OC(C)=O)n2c(=O)c3ccccc3c(=O)n21 (stereo partly specified) | > 200 µM | 10.7 µM | 
O=C1O/C(=C(/Br)c2ccc(Cl)c(Cl)c2)c2ccccc21 | > 200 µM | 11.7 µM | 
CCN(CC)CC(=O)Nc1ccc(C)c(Cl)c1 | > 200 µM | 112 µM | 
O=C1OCCOC(=O)c2cccc(n2)C(=O)OCCOC(=O)c2cccc1n2 | 22.9 µM | 25.7 µM | 
O=C1c2ccccc2C2NCCCN12 (stereo unspecified) |  |  | inactive
CCCCCCCCCCCCCCCC(=O)OCC1OC(OC)C(NC(=O)N(CCCl)N=O)C(O)C1O (stereo unspecified) | > 33.1 µM | 6.92 µM | 
CC(c1ccccc1)[P+](c1ccccc1)(c1ccccc1)c1ccccc1 (stereo unspecified) | > 200 µM | 1.32 µM | 
CCOC(=O)/C(=C\c1ccc(C(=O)OC)cc1)[Se]c1ccccc1 | > 66.1 µM | 61.7 µM | 
O=[N+]([O-])c1ccc(-c2csc3nc(-c4ccccc4)nn23)cc1 | > 200 µM | > 200 µM | 
Cc1cc(O)c2c(c1)C(=O)c1cc(O)cc(O)c1C2=O |  |  | inactive
CC(=O)OCC1OC(n2c3c(c(-c4ccc(Cl)cc4)c(C#N)c2=S)C(=O)CC(C)(C)C3)C(OC(C)=O)C(OC(C)=O)C1OC(C)=O (stereo unspecified) | > 200 µM | 6.46 µM | 
COC(=O)C12CN(C)CC(C(=O)OC)(C1=O)C(c1ccccn1)N(C)C2c1ccccn1 (stereo unspecified) | > 51.3 µM | 36.3 µM | 
CC[C@@]1(C[C@H]2C[C@@]3(C(=O)OC)c4[nH]c5ccccc5c4CCN3C2=O)COC2(CCCCC2)O1 | > 200 µM | 35.5 µM | 
CC(C)C1CNC2N1C(=O)C2(C)OCc1ccccc1 (stereo unspecified) | > 251 µM | 155 µM | 
O=C(NC(CSC(c1ccccc1)c1ccccc1)C(=O)Oc1ccc([N+](=O)[O-])cc1)OCc1ccccc1 (stereo unspecified) | > 200 µM | 85.1 µM | 
COc1ccc(/C=C/C(=O)c2c(-c3ccccc3)nn(C)c(=O)c2N2CC2C)cc1 (stereo unspecified) | > 64.6 µM | 22.4 µM | 
CCC(=O)OC1CCn2c1nc1c2C(=O)C(C)=C(NC(C)=O)C1=N (stereo unspecified) | > 200 µM | 3.55 µM | 
Cn1c2c(c(=O)c3cc(O)ccc31)CC(O)C(C)(C)O2 (stereo unspecified) | > 912 µM | 891 µM | 
S=C1NC2(CCCCC2)C2=C(CCCC2)S1 | > 141 µM | 12 µM | 
COCCN1C(=O)C2c3[nH]c4ccccc4c3C3CCC(C(C)(C)C)CC3C2C1=O (stereo unspecified) | > 200 µM | 39.8 µM | 

Compound | EC50 | IC50 | outcome
O[Si](c1ccc(C(F)(F)F)cc1)(c1cccc(C(F)(F)F)c1)c1cccc(C(F)(F)F)c1 | > 200 µM | 10.5 µM | 
C[C@]12CC[C@H](OC(=O)/C=C\c3cccc(N(CCCl)CCCl)c3)CC1CC[C@@H]1C2CC[C@]2(C)NC(=O)CCC12 (stereo partly specified) |  |  | inactive
CCOC(=O)c1ccc(CS(=O)(=O)c2ccccc2)c([N+](=O)[O-])c1 | > 102 µM | > 102 µM | 
CC1C(=O)CCC1C(Sc1ccccc1)(Sc1ccccc1)Sc1ccccc1 (stereo unspecified) |  |  | inactive
Cc1cc2c(O)c(c1)CN(CC(=O)O)Cc1cc(C)cc(c1O)CN(CC(=O)O)Cc1cc(C)cc(c1O)CN(CC(=O)O)C2 | > 200 µM | > 200 µM | 
CC1(C)CC2=NOS3=C2C(=NO3)C1c1ccccn1 (stereo unspecified) | > 200 µM | 95.5 µM | 
Cc1c(Cc2ccccc2)n(C(C)OCCN2C(=O)C=CC2=O)c(=O)[nH]c1=O (stereo unspecified) | > 200 µM | 9.77 µM | 
CC(=O)N(O)Cc1ccccc1 | > 1510 µM | 692 µM | 
CC1(O)c2ccccc2[P+](C)(c2ccccc2)c2ccccc21 (stereo unspecified) | > 562 µM | 29.5 µM | 
COc1ccc2c(c1)CCN1CCc3cc(OC)c(OC)cc3CC21 (stereo unspecified) | > 200 µM | 61.7 µM | 
CC(=O)NC1C(OCc2ccccc2)OC(COC(=O)CCCCCCCCCCNc2ccc([N+](=O)[O-])c3[nH]c4ccccc4c(=O)c23)C(O)C1OC(C)C(=O)NC(C)C(=O)NC(CCC(N)=O)C(=O)OCc1ccccc1 (stereo unspecified) | > 166 µM | > 166 µM | 
CCC1OC2C(CC=C(C)C)=C3OC(C)(O)C(C)(CC)C(=O)C3=C3OC(=O)C=C1C32 (stereo unspecified) | > 200 µM | 33.1 µM | 
C(=Nc1cnc2ccccc2c1)c1ccccn1 | > 407 µM | 102 µM | 
c1ccc(-c2cnc3cccnc3n2)cc1 | > 200 µM | 174 µM | 
CC(C)C(NC(=O)CNC(=O)OC(C)(C)C)C(=O)OCc1ccccc1 (stereo not drawn) (Boc-Gly-[ξV]-OBn) | > 200 µM | 148 µM | 
[Cl][Sn]([Cl])([c]1ccccc1)[c]1ccccc1 |  |  | inactive
CCOC(=O)NC(Nc1ccc([N+](=O)[O-])cc1)(C(F)(F)F)C(F)(F)F | > 200 µM | 66.1 µM | 
CCOC(=O)c1ncoc1[C@H]1COC(C)(C)O1 |  |  | inactive
O=C(NNC(=S)NC1OC(CO)C(O)C(O)C1O)c1cccc(C(=O)NNC(=S)NC2OC(CO)C(O)C(O)C2O)n1 (stereo unspecified) |  | > 200 µM | 
NC(CS)=NCc1ccccc1 | > 200 µM | 33.1 µM | 
C/C=C1\C=C(OC)CN(CCc2c[nH]c3ccccc23)C1 | > 158 µM | 50.1 µM | 
